Calls of active or inactive are those of the source. The calls are words filed in the database; no cut-off is given here.
Key:
HEK293 [1] = assay: Effect on DVL3 phosphorylation in human HEK293 cells at 1 uM measured after 6 hrs by Western blot analysis; format: functional, cell-based
[2] = biological target: T1, von Hippel-Lindau disease tumor suppressor/Casein kinase I isoform delta (Homo sapiens, UniProt P48730+P40337); assay: PROTAC activity at VHL/CK1 delta in human U87 cells assessed as induction of degradation of CK1 delta by measuring maximum efficacy at 1 uM measured after 6 hrs relative to control; format: cell-based
T1 sequence (P40337 whole entry, looked up, the tested form may be a part, canonical isoform): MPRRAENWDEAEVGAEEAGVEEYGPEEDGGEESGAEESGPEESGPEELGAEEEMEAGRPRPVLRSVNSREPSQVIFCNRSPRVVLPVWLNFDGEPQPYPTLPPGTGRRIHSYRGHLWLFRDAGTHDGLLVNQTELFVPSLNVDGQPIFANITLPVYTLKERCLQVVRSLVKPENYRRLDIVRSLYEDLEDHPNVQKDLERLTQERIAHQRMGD
T1 sequence (P48730 whole entry, looked up, the tested form may be a part, canonical isoform): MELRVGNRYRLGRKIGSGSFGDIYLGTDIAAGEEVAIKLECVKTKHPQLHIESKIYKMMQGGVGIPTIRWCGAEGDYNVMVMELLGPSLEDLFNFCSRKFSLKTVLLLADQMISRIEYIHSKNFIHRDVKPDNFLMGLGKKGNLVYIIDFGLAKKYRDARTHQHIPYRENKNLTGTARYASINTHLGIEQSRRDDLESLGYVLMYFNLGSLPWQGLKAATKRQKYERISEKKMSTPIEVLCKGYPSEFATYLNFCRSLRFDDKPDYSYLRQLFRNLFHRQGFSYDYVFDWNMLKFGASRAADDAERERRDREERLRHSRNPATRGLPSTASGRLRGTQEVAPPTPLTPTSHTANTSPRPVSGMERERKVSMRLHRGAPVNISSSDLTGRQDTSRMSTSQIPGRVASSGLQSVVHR

[3] = biological target: T1, von Hippel-Lindau disease tumor suppressor/Casein kinase I isoform delta; assay: PROTAC activity at VHL/HiBit fused CK1 delta in human MV4-11 cells assessed as fold change at 10 uM measured after 6 hrs in presence of 1 uM of MU1742 by Nano-Glo HiBit assay; format: cell-based
[4] = biological target: T1, von Hippel-Lindau disease tumor suppressor/Casein kinase I isoform delta; assay: PROTAC activity at VHL/CK1 delta in human MDA-MB-231 cells assessed as induction of degradation of CK1 delta at 1 uM measured after 6 hrs; format: cell-based
[5] = biological target: T2, von Hippel-Lindau disease tumor suppressor/Casein kinase I isoform alpha (Homo sapiens) (UniProt P48729+P40337); assay: PROTAC activity at VHL/CK1 alpha in HEK293 cells assessed as induction of degradation of CK1 alpha at 10 uM measured after 6 hrs by Western blot analysis relative to control; format: cell-based
T2 sequence (P40337 whole entry, looked up, canonical isoform): as the sequence (P40337 whole entry, looked up, the tested form may be a part, canonical isoform) above
T2 sequence (P48729 whole entry, looked up, canonical isoform): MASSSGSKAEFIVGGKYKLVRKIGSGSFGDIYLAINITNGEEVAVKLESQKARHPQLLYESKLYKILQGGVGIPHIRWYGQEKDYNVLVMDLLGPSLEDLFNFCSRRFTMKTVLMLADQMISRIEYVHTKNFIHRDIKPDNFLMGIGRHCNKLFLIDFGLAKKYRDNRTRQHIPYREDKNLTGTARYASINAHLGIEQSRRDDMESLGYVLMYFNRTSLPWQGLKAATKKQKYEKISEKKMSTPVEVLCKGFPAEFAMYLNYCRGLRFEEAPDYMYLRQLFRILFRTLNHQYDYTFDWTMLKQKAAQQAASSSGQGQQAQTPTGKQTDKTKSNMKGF

[6] = biological target: T2, von Hippel-Lindau disease tumor suppressor/Casein kinase I isoform alpha (Homo sapiens); assay: PROTAC activity at VHL/CK1 alpha in human HEK293 cells at 0.625 to 10 uM in presence of MU1742 by Western blot analysis; format: cell-based; details: dose 0.625-10 µM
[7] = biological target: T1, von Hippel-Lindau disease tumor suppressor/Casein kinase I isoform delta; assay: PROTAC activity at VHL/CK1 delta in HEK293 cells assessed as induction of degradation of CK1 delta at 3 uM measured after 6 hrs by Western blot analysis relative to control; format: cell-based
[8] = biological target: T1, von Hippel-Lindau disease tumor suppressor/Casein kinase I isoform delta; assay: PROTAC activity at VHL/Hibit-fused CK1 delta in human MV4-11 cells assessed as degradation of CK1-delta at 10 nM incubated for 6 hrs by Nano-Glo HiBiT assay; format: cell-based
[9] = biological target: T1, von Hippel-Lindau disease tumor suppressor/Casein kinase I isoform delta; assay: PROTAC activity at VHL/CK1 delta in human MV4-11 cells assessed as degradation of CK1-delta at 5 to 10 uM incubated for 6 hrs by Western blot analysis; format: cell-based; details: dose 5-10 µM
[10] = biological target: T1, von Hippel-Lindau disease tumor suppressor/Casein kinase I isoform delta; assay: PROTAC activity at VHL/full length N-terminal Nano-luc fused CK1 delta (unknown origin) transfected in HEK293T cells incubated for 2 hrs followed by substrate addition by NanoBRET target engagement assay; format: cell-based
[11] = biological target: T1, von Hippel-Lindau disease tumor suppressor/Casein kinase I isoform delta; assay: PROTAC activity at VHL/CK1 delta in HEK293 cells assessed as induction of degradation of CK1 delta at 3 uM measured after 1 hrs by Western blot analysis; format: cell-based
[12] = biological target: T3, von Hippel-Lindau disease tumor suppressor/Casein kinase I isoform epsilon (Homo sapiens) (UniProt P49674+P40337); assay: PROTAC activity at VHL/CK1 epsilon in HEK293 cells assessed as induction of degradation of CK1 epsilon at 3 uM measured after 6 hrs by Western blot analysis relative to control; format: cell-based
T3 sequence (P40337 whole entry, looked up, canonical isoform): as the sequence (P40337 whole entry, looked up, the tested form may be a part, canonical isoform) above
T3 sequence (P49674 whole entry, looked up, canonical isoform): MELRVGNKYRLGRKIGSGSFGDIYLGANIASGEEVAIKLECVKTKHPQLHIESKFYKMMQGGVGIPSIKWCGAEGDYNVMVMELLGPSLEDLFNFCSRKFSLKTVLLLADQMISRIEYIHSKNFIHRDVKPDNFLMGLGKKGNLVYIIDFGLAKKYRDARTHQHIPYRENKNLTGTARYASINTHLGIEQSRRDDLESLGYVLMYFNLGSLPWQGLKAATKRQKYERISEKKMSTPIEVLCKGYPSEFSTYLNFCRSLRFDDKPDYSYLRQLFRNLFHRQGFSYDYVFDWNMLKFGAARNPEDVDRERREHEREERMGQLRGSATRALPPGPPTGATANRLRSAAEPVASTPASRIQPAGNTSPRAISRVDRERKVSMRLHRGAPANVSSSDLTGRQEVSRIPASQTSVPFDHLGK

[13] = biological target: T3, von Hippel-Lindau disease tumor suppressor/Casein kinase I isoform epsilon (Homo sapiens); assay: PROTAC activity at VHL/CK1 epsilon in HEK293 cells assessed as induction of degradation of CK1 epsilon at 0.3 to 1.0 uM measured after 6 hrs by Western blot analysis relative to control; format: cell-based; details: dose 0.3-1 µM
[14] = biological target: T2, von Hippel-Lindau disease tumor suppressor/Casein kinase I isoform alpha (Homo sapiens); assay: PROTAC activity at VHL/CK1 alpha in HEK293 cells assessed as induction of degradation of CK1 alpha by measuring maximum efficacy at 5 to 10 uM measured after 6 hrs by Western blot analysis relative to control; format: cell-based; details: dose 5-10 µM
[15] = biological target: T1, von Hippel-Lindau disease tumor suppressor/Casein kinase I isoform delta; assay: PROTAC activity at VHL/Hibit-fused CK1 delta in human MV4-11 cells assessed as degradation of CK1 delta at 5 to 10 uM incubated for 6 hrs by Western blot analysis; format: cell-based; details: dose 5-10 µM
[16] = biological target: T1, von Hippel-Lindau disease tumor suppressor/Casein kinase I isoform delta; assay: PROTAC activity at VHL/Hibit-fused CK1 delta in human MV4-11 cells assessed as half life at 2.5 uM measured upto 12 hrs in presence of cycloheximide by Nano-Glo HiBiT assay (reference value: 3 hrs); format: cell-based
[17] = biological target: T1, von Hippel-Lindau disease tumor suppressor/Casein kinase I isoform delta; assay: PROTAC activity at VHL/HiBit fused CK1 delta in human MV4-11 cells assessed as fold change at 2.5 uM measured after 6 hrs in presence of 10 uM of MU1742 by Nano-Glo HiBit assay; format: cell-based
[18] = biological target: T1, von Hippel-Lindau disease tumor suppressor/Casein kinase I isoform delta; assay: PROTAC activity at VHL/Hibit-fused CK1 delta in human MV4-11 cells assessed as degradation of CK1-delta at 2.5 uM measured upto 12 hrs in presence of cycloheximide by Nano-Glo HiBiT assay relative to control; format: cell-based
[19] = biological target: T1, von Hippel-Lindau disease tumor suppressor/Casein kinase I isoform delta; assay: PROTAC activity at VHL/HiBit fused CK1 delta in human MV4-11 cells assessed as fold change at 10 uM measured after 6 hrs in presence of MLN4924 by Nano-Glo HiBit assay; format: cell-based
[20] = biological target: T1, von Hippel-Lindau disease tumor suppressor/Casein kinase I isoform delta; assay: PROTAC activity at VHL/HiBit fused CK1 delta in human MV4-11 cells assessed as fold change at 2.5 uM measured after 6 hrs in presence of MLN4924 by Nano-Glo HiBit assay; format: cell-based
[21] = biological target: T1, von Hippel-Lindau disease tumor suppressor/Casein kinase I isoform delta; assay: PROTAC activity at VHL/CK1 delta in human MV4-11 cells assessed as induction of degradation of CK1 delta by measuring maximum efficacy at 0.625 to 10 uM measured after 9 hrs by HiBit assay relative to control; format: cell-based; details: dose 0.625-10 µM
[22] = biological target: T2, von Hippel-Lindau disease tumor suppressor/Casein kinase I isoform alpha (Homo sapiens); assay: PROTAC activity at VHL/CK1 alpha in human MV4-11 cells assessed as degradation of CK1-alpha at 10 to 30 uM incubated for 6 hrs by Western blot analysis; format: cell-based; details: dose 10-30 µM
[23] = biological target: T2, von Hippel-Lindau disease tumor suppressor/Casein kinase I isoform alpha (Homo sapiens); assay: PROTAC activity at VHL/CK1 alpha in human MV4-11 cells assessed as induction of degradation of CK1 alpha measured after 1 hrs by HiBit assay; format: cell-based; details: dose 0.625-10 µM
MV4-11 = assay: Cytotoxicity in human MV4-11 cells at >10 uM measured after 72 hrs by alamar blue assay; format: functional, cell-based
[24] = biological target: T3, von Hippel-Lindau disease tumor suppressor/Casein kinase I isoform epsilon (Homo sapiens); assay: PROTAC activity at VHL/Hibit-fused CK1 epsilon in human MV4-11 cells assessed as degradation of CK1 epsilon at 5 to 10 uM incubated for 6 hrs by Western blot analysis; format: cell-based; details: dose 5-10 µM
[25] = biological target: T1, von Hippel-Lindau disease tumor suppressor/Casein kinase I isoform delta; assay: PROTAC activity at VHL/CK1 delta in human U87 cells assessed as induction of degradation of CK1 delta at 1 uM measured after 6 hrs; format: cell-based
[26] = biological target: T1, von Hippel-Lindau disease tumor suppressor/Casein kinase I isoform delta; assay: PROTAC activity at VHL/HiBit fused CK1 delta in human MV4-11 cells assessed as fold change at 2.5 uM measured after 6 hrs in presence of 1 uM of MU1742 by Nano-Glo HiBit assay; format: cell-based
[27] = biological target: T1, von Hippel-Lindau disease tumor suppressor/Casein kinase I isoform delta; assay: PROTAC activity at VHL/HiBit fused CK1 delta in human MV4-11 cells assessed as fold change at 0.63 uM measured after 6 hrs in presence of 10 uM of MU1742 by Nano-Glo HiBit assay; format: cell-based
HEK293 [28] = assay: Effect on VANGL2 phosphorylation in human HEK293 cells at 1 uM measured after 6 hrs by Western blot analysis; format: functional, cell-based
[29] = biological target: T1, von Hippel-Lindau disease tumor suppressor/Casein kinase I isoform delta; assay: PROTAC activity at VHL/CK1 delta in human HEK293 cells assessed as degradation of CK1-delta at 3 to 20 uM incubated overnight followed by compound washout and measured after 1 hr by Nano-Glo HiBiT assay; format: cell-based; details: dose 3-20 µM

In the case of Cc1ncsc1-c1ccc(CNC(=O)[C@H]2C[C@H](O)CN2C(=O)[C@H](NC(=O)CCCCCCC(=O)N2CCC(F)(Cn3cnc(-c4ccc(F)cn4)c3-c3ccnc4[nH]ccc34)CC2)C(C)(C)C)cc1, the Activity (HEK293 [1]) is reported as “Active”, the Emax [2] is reported as over 50% and the fold change (FC) [3] is reported as 0.67. The Activity [4] was “Active”, the Activity [5] was “Not active; Compound Showed Weak Degradation” and the Activity [6] was “inactive”. For the same compound, the Activity [7] was 100%, the Activity [8] was “Active” and the Activity [9] was “Active”. The Emax [10] was 3.2%, the Activity [11] was “Active” and the Activity [12] was 100%. For the same compound, the Activity [13] was 100%, the Emax [14] was over 50% and the Activity [15] was “Active”. For the same compound, the T1/2 [16] was 40 min, the fold change (FC) [17] was 1.19 and the Activity [18] was 90%. The fold change (FC) [19] was 0.93, the fold change (FC) [20] was 0.85 and the Emax [21] was 75%. The Activity [22] was “Not active; Compound Showed Weak Degradation”, the Activity [23] was “Dose-dependent-effect” and the Activity (MV4-11) was “Active”. For the same compound, the Activity [24] was “Active”, the Activity [25] was “Active” and the fold change (FC) [26] was 0.97. The fold change (FC) [27] was 1.2, the Activity (HEK293 [28]) was “Active” and the Activity [29] was “inactive”.
